In US6472418B1, “Non-peptide NK1 receptors antagonists” (Warner-Lambert Company, priority 1998, dated 2002):
Like-named read-outs stand apart in the source and are kept apart here.

Key:
Human NK1 Receptor = target: T1, Human NK1 Receptor (Homo sapiens, UniProt P25103); test: In Vitro Human NK1 Receptor Binding Assay ([125I]Bolton-Hunter substance P displacement, IM9 cells)
T1 construct: endogenous in cells; host or cells: Human lymphoma IM9 cells (whole cells)
How it was run: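 Test compounds competed with 0.05-0.1 nM [125I]Bolton-Hunter substance P for binding to intact IM9 cells over 50 min at 21° C, pH 7.4 buffer with MnCl2 and peptidase inhibitors. […] [Sar9, Met(O2)11] substance P gave non-specific binding. Bound counts were measured after filtration and fitted iteratively.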

[1] = Human lymphoma IM9 cells, [125I]Bolton-Hunter substance P (0.05-0.1 nM), 50 min at 21° C., Table 1, read-out: NK1 binding IC50
[2] = Human lymphoma IM9 cells, [125I]Bolton-Hunter substance P, Table 3, array-synthesis products, read-out: IC50 (nM) hNK1
[3] = human NK1 receptor, IM9 cells, [125I]Bolton-Hunter substance P, read-out: IC50 (nM) hNK1
[4] = Table 4, [125I]Bolton-Hunter substance P displacement, human IM9 cells, read-out: IC50 (nM) hNK1

T1 sequence (P25103 whole entry): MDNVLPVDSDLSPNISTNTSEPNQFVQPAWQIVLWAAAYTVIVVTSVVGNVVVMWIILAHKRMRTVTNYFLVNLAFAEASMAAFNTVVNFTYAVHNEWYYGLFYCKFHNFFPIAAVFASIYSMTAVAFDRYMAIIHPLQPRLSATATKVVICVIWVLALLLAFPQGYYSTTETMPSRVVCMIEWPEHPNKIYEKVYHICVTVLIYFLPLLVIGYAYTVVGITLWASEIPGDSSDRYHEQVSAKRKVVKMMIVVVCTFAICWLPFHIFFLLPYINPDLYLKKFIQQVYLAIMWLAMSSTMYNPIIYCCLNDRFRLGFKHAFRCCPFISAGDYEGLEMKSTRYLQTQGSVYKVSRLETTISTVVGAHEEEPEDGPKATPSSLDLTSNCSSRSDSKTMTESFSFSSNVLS

Compound | IC50 (Human NK1 Receptor; [1]) [nM] | melting point [°C] | also measured
CN(C)C[C@H](NC(=O)[C@@](C)(Cc1c[nH]c2ccccc12)NCc1cc2ccccc2o1)c1ccccc1 [Example 4, 2-[(Benzofuran-2-ylmethyl)-amino]-N-(2-dimethylamino-1-phenyl-ethyl)-3-(1H-indol-3-yl)-2-methyl-propionamide, (R,R)] | 1210 | 130 to 134 | 
C[C@H](NC(=O)[C@@H](Cc1c[nH]c2ccccc12)NCc1cc2ccccc2s1)c1ccccc1 [Example 10, 2-[(Benzo[b]thiophen-2-ylmethyl)-amino]-3-(1H-indol-3-yl)-N-(1-phenyl-ethyl)-propionamide] | 51 | 102 to 108 | 
C[C@](Cc1c[nH]c2ccccc12)(NCc1cc2ccccc2o1)C(=O)NCc1cccc(O)c1 [Example 5, 2-[(Benzofuran-2-ylmethyl)-amino]-N-(3-hydroxy-benzyl)-3-(1H-indol-3-yl)-2-methyl-propionamide, R] | 295 | 60 to 69 | 
C[C@H](NC(=O)[C@@](C)(Cc1c[nH]c2ccccc12)NCc1cc2ccccc2o1)c1ccncc1 (relative stereo) [Example 3, 2-[(Benzofuran-2-ylmethyl)-amino]-3-(1H-indol-3-yl)-2-methyl-N-(1-pyridin-4-yl-ethyl)-propionamide, [R(R*,S*)]] | 6 | 66 to 69 | 
C[C@H](NC(=O)[C@@H](Cc1c[nH]c2ccccc12)NCc1nc2ccccc2[nH]1)c1ccccc1 (relative stereo) [Example 9, 2-[(1H-Benzoimidazol-2-ylmethyl)-amino]-3-(1H-indol-3-yl)-N-(1-phenyl-ethyl)-propionamide, [R-(R*,S*)]] | 112 | 148 to 152.5 | 
C[C@H](NC(=O)[C@@H](Cc1c[nH]c2ccccc12)NCc1cnc2ccccc2c1)c1ccccc1 (relative stereo) [Example 11, 3-(1H-Indol-3-yl)-N-(1-phenyl-ethyl)-2-[(quinolin-3-ylmethyl)-amino]-propionamide, [R-(R*,S*)]] | 46 | 161 to 163 | 
CC(NC(=O)[C@@](C)(Cc1c[nH]c2ccccc12)NCc1cc2ccccc2o1)c1ccn(C)c1 (stereo in doubt) [Example 2, 2-[(Benzofuran-2-ylmethyl)-amino]-3-(1H-indol-3-yl)-2-methyl-N-[1-(1-methyl-1H-pyrrol-3-yl)-ethyl]-propionamide, [R-(R*,R*)] and [R-(R*,S*)]] | 23 | 53 to 57 | 
CC(C)(NC(=O)[C@@](C)(Cc1c[nH]c2ccccc12)NCc1cc2ccccc2o1)c1ccccc1 [Example 1, 2-[(Benzofuran-2-ylmethyl)-amino]-3-(1H-indol-3-yl)-2-methyl-N-(1-methyl-1-phenyl-ethyl)-propionamide, (R)] | 591 | 57 to 62 | 
C[C@H](NC(=O)[C@@H](Cc1c[nH]c2ccccc12)NCCc1cc2ccccc2o1)c1ccccc1 (relative stereo) [Example 7, 2-(2-Benzofuran-2-yl-ethylamino)-3-(1H-indol-3-yl)-N-(1-phenyl-ethyl)-propionamide, [R-(R*,S*)]] | 3.3 | 105 to 107 | 
O=C(NCc1ccc(F)c(F)c1)C(Cc1c[nH]c2ccccc12)NCc1cc2ccccc2o1 (stereo not shown) [Example 268, 2-[(Benzofuran-2-ylmethyl)-amino]-N-(3,4-difluoro-benzyl)-3-(1H-indol-3-yl)-propionamide] |  |  | IC50 (Human NK1 Receptor; [2]): 10 nM
CC(Cc1c[nH]c2ccccc12)(NCc1cc2ccccc2o1)C(=O)NCCc1cccnc1 (stereo not shown) [compound 145, 2-[(Benzofuran-2-ylmethyl)-amino]-3-(1H-indol-3-yl)-2-methyl-N-(2-pyridin-3-yl-ethyl)-propionamide] |  |  | IC50 (Human NK1 Receptor; [3]): 1300 nM
CC(Cc1c[nH]c2ccccc12)(NCc1cc2ccccc2o1)C(=O)NCc1cccc(F)c1 (stereo not shown) [compound 166, 2-[(Benzofuran-2-ylmethyl)-amino]-N-(3-fluoro-benzyl)-3-(1H-indol-3-yl)-2-methyl-propionamide] |  |  | IC50 (Human NK1 Receptor; [3]): 37 nM
Cc1c(-c2ccccc2)occ(CNC(Cc2c[nH]c3ccccc23)C(=O)NC(C)c2ccccc2)c1=O (stereo not shown) [compound 373] |  |  | IC50 (Human NK1 Receptor; Table 5, [125I]Bolton-Hunter substance P displacement, human IM9 cells, read-out: IC50 (nM) hNK1): 507 nM
CC(NC(=O)C(C)(Cc1c[nH]c2ccccc12)NCc1ccccc1OCc1cccnc1)c1ccccc1 (stereo not shown) [compound 324, 3-(1H-Indol-3-yl)-2-methyl-N-(1-phenyl-ethyl)-2-[2-(pyridin-3-ylmethoxy)-benzylamino]-propionamide] |  |  | IC50 (Human NK1 Receptor; [4]): 2970 nM
O=C(NCc1ccccc1)C(Cc1c[nH]c2ccccc12)NCc1cc2ccccc2o1 (stereo not shown) [Example 254, 2-[(Benzofuran-2-ylmethyl)-amino]-N-benzyl-3-(1H-indol-3-yl)-propionamide] |  |  | IC50 (Human NK1 Receptor; [2]): 22 nM
O=C(NCc1cc(C(F)(F)F)cc(C(F)(F)F)c1)C(Cc1c[nH]c2ccccc12)NCc1cc2ccccc2o1 (stereo not shown) [Example 218, 2-[(Benzofuran-2-ylmethyl)-amino]-N-(3,5-bis-trifluoromethyl-benzyl)-3-(1H-indol-3-yl)-propionamide] |  |  | IC50 (Human NK1 Receptor; [2]): 294 nM
CSc1ccc(CNC(C)(Cc2c[nH]c3ccccc23)C(=O)NC(C)c2ccccc2)cc1 (stereo not shown) [compound 345, 3-(1H-Indol-3-yl)-2-methyl-2-(4-methylsulfanyl-benzylamino)-N-(1-phenyl-ethyl)-propionamide] |  |  | IC50 (Human NK1 Receptor; [4]): 609 nM
CC(NC(=O)C(C)(Cc1c[nH]c2ccccc12)NCc1ccc2ccccc2n1)c1ccccc1 (stereo not shown) [compound 311, 3-(1H-Indol-3-yl)-2-methyl-N-(1-phenyl-ethyl)-2-[(quinolin-2-ylmethyl)-amino]-propionamide] |  |  | IC50 (Human NK1 Receptor; [4]): 88 nM
O=C(NC1CCc2ccccc2C1)C(Cc1c[nH]c2ccccc12)NCc1cc2ccccc2o1 (stereo not shown) [Example 253, 2-[(Benzofuran-2-ylmethyl)-amino]-3-(1H-indol-3-yl)-N-(1,2,3,4-tetrahydro-naphthalen-2-yl)-propionamide] |  |  | IC50 (Human NK1 Receptor; [2]): 3330 nM
CC(NC(=O)C(C)(Cc1c[nH]c2ccccc12)NCc1ccc(OCCN(C)C)cc1)c1ccccc1 (stereo not shown) [compound 331, 2-[4-(2-Dimethylamino-ethoxy)-benzylamino]-3-(1H-indol-3-yl)-2-methyl-N-(1-phenyl-ethyl)-propionamide] |  |  | IC50 (Human NK1 Receptor; [4]): > 10000 nM
2-(4-Chloro-3-sulfamoyl-benzylamino)-3-(1H-indol-3-yl)-2-methyl-N-(1-phenyl-ethyl)-propionamide [compound 336] |  |  | IC50 (Human NK1 Receptor; [4]): 4230 nM
CC(Cc1c[nH]c2ccccc12)(NCc1cc2ccccc2o1)C(=O)NCC(=O)c1ccccc1 (stereo not shown) [compound 163, 2-[(Benzofuran-2-ylmethyl)-amino]-3-(1H-indol-3-yl)-2-methyl-N-(2-oxo-2-phenyl-ethyl)-propionamide] |  |  | IC50 (Human NK1 Receptor; [3]): 166 nM
C[C@H](NC(=O)[C@@H](Cc1c[nH]c2ccccc12)NCc1cccc(SC(F)(F)F)c1)c1ccccc1 (relative stereo) [Example 13, 3-(1H-Indol-3-yl)-N-(1-phenyl-ethyl)-2-(3-trifluoromethylsulfanyl-benzylamino)-propionamide, [R-(R*,S*)]] | 35 |  | 
CC(Cc1c[nH]c2ccccc12)(NCc1cc2ccccc2o1)C(=O)NC1CCc2ccccc2C1 (stereo not shown) [compound 111, 2-[(Benzofuran-2-ylmethyl)-amino]-3-(1H-indol-3-yl)-2-methyl-N-(1,2,3,4-tetrahydro-naphthalen-2-yl)-propionamide] |  |  | IC50 (Human NK1 Receptor; [3]): > 10000 nM
CC(NC(=O)C(C)(Cc1c[nH]c2ccccc12)NCc1cc2ccccc2o1)c1ccc(N)cc1 (stereo not shown) [compound 38, N-[1-(4-Amino-phenyl)-ethyl]-2-[(benzofuran-2-ylmethyl)-amino]-3-(1H-indol-3-yl)-2-methyl-propionamide] |  |  | IC50 (Human NK1 Receptor; [3]): 141 nM
CC(NC(=O)C(C)(Cc1c[nH]c2ccccc12)NCc1ccccn1)c1ccccc1 (stereo not shown) [compound 310, 3-(1H-Indol-3-yl)2-methyl-N-(1-phenyl-ethyl)-2-[(pyridin-2-ylmethyl)-amino]-propionamide] |  |  | IC50 (Human NK1 Receptor; [4]): 3320 nM

Continued, in another order:

IC50 (Human NK1 Receptor; [1]) [nM] | melting point [°C] | Compound | also measured
4.4 | 118 to 121 | C[C@H](NC(=O)[C@@](C)(Cc1c[nH]c2ccccc12)NCc1cc2ccccc2o1)c1ccccc1 (relative stereo) [Example 18, 2-[(Benzofuran-2-ylmethyl)-amino]-3-(1H-indol-3-yl)-2-methyl-N-(1-phenyl-ethyl)-propionamide, [R-(R*,S*)]] | 
815 | 123 to 133 | C[C@H](NC(=O)[C@@](C)(Cc1c[nH]c2ccccc12)NCc1ccc[nH]1)c1ccccc1 (relative stereo) [Example 20, 3-(1H-Indol-3-yl)-2-methyl-N-(1-phenyl-ethyl)-2-[(1H-pyrrol-2-ylmethyl)-amino]-propionamide, (R-(R*,S*)]] | 
58 | 104 to 106 | C[C@H](NC(=O)[C@@](C)(Cc1c[nH]c2ccccc12)NCc1coc2ccccc12)c1ccccc1 (relative stereo) [Example 19, 2-[(Benzofuran-3-ylmethyl)-amino]-3-(1H-indol-3-yl)-2-methyl-N-(1-phenyl-ethyl)-propionamide, [R-(R*,S*)]] | 
2.9 | 176 to 178 | C[C@H](NC(=O)[C@@](C)(Cc1c[nH]c2ccccc12)NC(=O)NCc1cc2ccccc2o1)c1ccccc1 (relative stereo) [Example 22, 2-(3-Benzofuran-2-ylmethyl-ureido)-3-(1H-indol-3-yl)-2-methyl-N-(1-phenyl-ethyl)-propionamide, [R-(R*,S*)]] | 
